From the CheMixHub viscosity set
Values joined by “and” are separate entries in the source; they are usually repeats but may differ in a detail not shown here. Equal entries are not always repeated. ± gives the uncertainty stated by the source.

Assay: xn = mol fraction of the nth substance listed

SMILES: CCCCCC(C)C + CCCCO
- viscosity (293.15 K, 100 kPa, x2 = 0.1005): 0.528 ± 0.007 mPa·s
- viscosity (293.15 K, 100 kPa, x2 = 0.2014): 0.576 ± 0.008 mPa·s
- viscosity (293.15 K, 100 kPa, x2 = 0.3002): 0.634 ± 0.008 mPa·s
- viscosity (293.15 K, 100 kPa, x2 = 0.4): 0.741 ± 0.009 mPa·s
- viscosity (293.15 K, 100 kPa, x2 = 0.5004): 0.891 ± 0.011 mPa·s
- viscosity (293.15 K, 100 kPa, x2 = 0.6006): 1.1 ± 0.01 mPa·s
- viscosity (293.15 K, 100 kPa, x2 = 0.7): 1.37 ± 0.02 mPa·s
- viscosity (293.15 K, 100 kPa, x2 = 0.8001): 1.74 ± 0.02 mPa·s
- viscosity (293.15 K, 100 kPa, x2 = 0.9): 2.24 ± 0.03 mPa·s
- viscosity (303.15 K, 100 kPa, x2 = 0.1005): 0.467 ± 0.007 mPa·s
- viscosity (303.15 K, 100 kPa, x2 = 0.2014): 0.508 ± 0.007 mPa·s
- viscosity (303.15 K, 100 kPa, x2 = 0.3002): 0.549 ± 0.008 mPa·s
- viscosity (303.15 K, 100 kPa, x2 = 0.4): 0.635 ± 0.008 mPa·s
- viscosity (303.15 K, 100 kPa, x2 = 0.5004): 0.748 ± 0.009 mPa·s
- viscosity (303.15 K, 100 kPa, x2 = 0.6006): 0.902 ± 0.011 mPa·s
- viscosity (303.15 K, 100 kPa, x2 = 0.7): 1.11 ± 0.01 mPa·s
- viscosity (303.15 K, 100 kPa, x2 = 0.8001): 1.38 ± 0.02 mPa·s
- viscosity (303.15 K, 100 kPa, x2 = 0.9): 1.75 ± 0.02 mPa·s
- viscosity (313.15 K, 100 kPa, x2 = 0.1005): 0.413 ± 0.006 mPa·s
- viscosity (313.15 K, 100 kPa, x2 = 0.2014): 0.447 ± 0.007 mPa·s
- viscosity (313.15 K, 100 kPa, x2 = 0.3002): 0.476 ± 0.007 mPa·s
- viscosity (313.15 K, 100 kPa, x2 = 0.4): 0.548 ± 0.008 mPa·s
- viscosity (313.15 K, 100 kPa, x2 = 0.5004): 0.633 ± 0.008 mPa·s
- viscosity (313.15 K, 100 kPa, x2 = 0.6006): 0.751 ± 0.009 mPa·s
- viscosity (313.15 K, 100 kPa, x2 = 0.7): 0.906 ± 0.011 mPa·s
- viscosity (313.15 K, 100 kPa, x2 = 0.8001): 1.11 ± 0.01 mPa·s
- viscosity (313.15 K, 100 kPa, x2 = 0.9): 1.39 ± 0.02 mPa·s
- viscosity (323.15 K, 100 kPa, x2 = 0.1005): 0.364 ± 0.006 mPa·s
- viscosity (323.15 K, 100 kPa, x2 = 0.2014): 0.391 ± 0.006 mPa·s
- viscosity (323.15 K, 100 kPa, x2 = 0.3002): 0.422 ± 0.006 mPa·s
- viscosity (323.15 K, 100 kPa, x2 = 0.4): 0.473 ± 0.007 mPa·s
- viscosity (323.15 K, 100 kPa, x2 = 0.5004): 0.539 ± 0.007 mPa·s
- viscosity (323.15 K, 100 kPa, x2 = 0.6006): 0.633 ± 0.008 mPa·s
- viscosity (323.15 K, 100 kPa, x2 = 0.7): 0.751 ± 0.009 mPa·s
- viscosity (323.15 K, 100 kPa, x2 = 0.8001): 0.907 ± 0.011 mPa·s
- viscosity (323.15 K, 100 kPa, x2 = 0.9): 1.12 ± 0.01 mPa·s

SMILES: CCNCCO + CCOCCOCCOCC
- viscosity (293.15 K, 101.3 kPa, x1 = 0.313): 1.74 ± 0.35 mPa·s
- viscosity (293.15 K, 101.3 kPa, x1 = 0.548): 2.601 ± 0.52 mPa·s and 2.603 ± 0.52 mPa·s
- viscosity (293.15 K, 101.3 kPa, x1 = 0.732): 4.275 ± 0.86 mPa·s
- viscosity (293.15 K, 101.3 kPa, x1 = 0.879): 7.482 ± 1.5 mPa·s
- viscosity (293.15 K, 101.3 kPa, x2 = 0.1906): 5.481 ± 1.1 mPa·s
- viscosity (293.15 K, 101.3 kPa, x2 = 0.3546): 3.2 ± 0.64 mPa·s
- viscosity (293.15 K, 101.3 kPa, x2 = 0.5618): 2.028 ± 0.41 mPa·s
- viscosity (303.15 K, 101.3 kPa, x1 = 0.313): 1.397 ± 0.28 mPa·s
- viscosity (303.15 K, 101.3 kPa, x1 = 0.548): 2.007 ± 0.4 mPa·s and 2.027 ± 0.41 mPa·s
- viscosity (303.15 K, 101.3 kPa, x1 = 0.732): 3.137 ± 0.63 mPa·s
- viscosity (303.15 K, 101.3 kPa, x1 = 0.879): 5.176 ± 1 mPa·s
- viscosity (303.15 K, 101.3 kPa, x2 = 0.1906): 3.902 ± 0.78 mPa·s
- viscosity (303.15 K, 101.3 kPa, x2 = 0.3546): 2.422 ± 0.49 mPa·s
- viscosity (303.15 K, 101.3 kPa, x2 = 0.5618): 1.604 ± 0.32 mPa·s
- viscosity (313.15 K, 101.3 kPa, x1 = 0.313): 1.14 ± 0.23 mPa·s
- viscosity (313.15 K, 101.3 kPa, x1 = 0.548): 1.584 ± 0.32 mPa·s and 1.616 ± 0.32 mPa·s
- viscosity (313.15 K, 101.3 kPa, x1 = 0.732): 2.372 ± 0.48 mPa·s
- viscosity (313.15 K, 101.3 kPa, x1 = 0.879): 3.717 ± 0.74 mPa·s
- viscosity (313.15 K, 101.3 kPa, x2 = 0.1906): 2.88 ± 0.58 mPa·s
- viscosity (313.15 K, 101.3 kPa, x2 = 0.3546): 1.867 ± 0.37 mPa·s
- viscosity (313.15 K, 101.3 kPa, x2 = 0.5618): 1.291 ± 0.26 mPa·s
- viscosity (323.15 K, 101.3 kPa, x1 = 0.313): 0.9463 ± 0.19 mPa·s
- viscosity (323.15 K, 101.3 kPa, x1 = 0.548): 1.276 ± 0.26 mPa·s and 1.317 ± 0.26 mPa·s
- viscosity (323.15 K, 101.3 kPa, x1 = 0.732): 1.844 ± 0.37 mPa·s
- viscosity (323.15 K, 101.3 kPa, x1 = 0.879): 2.764 ± 0.55 mPa·s
- viscosity (323.15 K, 101.3 kPa, x2 = 0.1906): 2.189 ± 0.44 mPa·s
- viscosity (323.15 K, 101.3 kPa, x2 = 0.3546): 1.478 ± 0.3 mPa·s
- viscosity (323.15 K, 101.3 kPa, x2 = 0.5618): 1.056 ± 0.21 mPa·s

SMILES: CC(C)CC(C)C + CCCCCCCCCCCCCCCC
- viscosity (298 K, 101 kPa, x1 = 0.5): 1.314 ± 0.035 mPa·s
- viscosity (318 K, 101 kPa, x1 = 0.5): 0.9631 ± 0.025 mPa·s

SMILES: COC(=O)c1ccccc1 + O=C1CCCCC1
- viscosity (303.15 K, 101 kPa, x1 = 0.0859): 1.713 ± 0.017 mPa·s
- viscosity (303.15 K, 101 kPa, x1 = 0.1728): 1.643 ± 0.016 mPa·s
- viscosity (303.15 K, 101 kPa, x1 = 0.2643): 1.593 ± 0.016 mPa·s
- viscosity (303.15 K, 101 kPa, x1 = 0.3589): 1.552 ± 0.015 mPa·s
- viscosity (303.15 K, 101 kPa, x1 = 0.4562): 1.535 ± 0.015 mPa·s
- viscosity (303.15 K, 101 kPa, x1 = 0.5517): 1.548 ± 0.015 mPa·s
- viscosity (303.15 K, 101 kPa, x1 = 0.6575): 1.56 ± 0.02 mPa·s
- viscosity (303.15 K, 101 kPa, x1 = 0.7664): 1.597 ± 0.015 mPa·s
- viscosity (303.15 K, 101 kPa, x1 = 0.8794): 1.646 ± 0.015 mPa·s
- viscosity (313.15 K, 101 kPa, x1 = 0.0859): 1.422 ± 0.015 mPa·s
- viscosity (313.15 K, 101 kPa, x1 = 0.1728): 1.367 ± 0.015 mPa·s
- viscosity (313.15 K, 101 kPa, x1 = 0.2643): 1.332 ± 0.015 mPa·s
- viscosity (313.15 K, 101 kPa, x1 = 0.3589): 1.299 ± 0.014 mPa·s
- viscosity (313.15 K, 101 kPa, x1 = 0.4562): 1.282 ± 0.014 mPa·s
- viscosity (313.15 K, 101 kPa, x1 = 0.5517): 1.292 ± 0.014 mPa·s
- viscosity (313.15 K, 101 kPa, x1 = 0.6575): 1.307 ± 0.014 mPa·s
- viscosity (313.15 K, 101 kPa, x1 = 0.7664): 1.337 ± 0.014 mPa·s
- viscosity (313.15 K, 101 kPa, x1 = 0.8794): 1.375 ± 0.014 mPa·s

SMILES: CCOC(=O)CCl + COc1ccccc1
- viscosity (298.15 K, 101.3 kPa, x1 = 0.1012): 0.983 ± 0.008 mPa·s
- viscosity (298.15 K, 101.3 kPa, x1 = 0.2027): 0.987 ± 0.008 mPa·s
- viscosity (298.15 K, 101.3 kPa, x1 = 0.3): 0.989 ± 0.008 mPa·s
- viscosity (298.15 K, 101.3 kPa, x1 = 0.3936): 0.996 ± 0.008 mPa·s
- viscosity (298.15 K, 101.3 kPa, x1 = 0.4982): 1.004 ± 0.009 mPa·s
- viscosity (298.15 K, 101.3 kPa, x1 = 0.6022): 1.019 ± 0.009 mPa·s
- viscosity (298.15 K, 101.3 kPa, x1 = 0.6954): 1.033 ± 0.009 mPa·s
- viscosity (298.15 K, 101.3 kPa, x1 = 0.7934): 1.049 ± 0.009 mPa·s
- viscosity (298.15 K, 101.3 kPa, x1 = 0.8919): 1.072 ± 0.009 mPa·s
- viscosity (303.15 K, 101.3 kPa, x1 = 0.1012): 0.915 ± 0.008 mPa·s
- viscosity (303.15 K, 101.3 kPa, x1 = 0.2027): 0.916 ± 0.008 mPa·s
- viscosity (303.15 K, 101.3 kPa, x1 = 0.3): 0.918 ± 0.008 mPa·s
- viscosity (303.15 K, 101.3 kPa, x1 = 0.3936): 0.925 ± 0.008 mPa·s
- viscosity (303.15 K, 101.3 kPa, x1 = 0.4982): 0.932 ± 0.008 mPa·s
- viscosity (303.15 K, 101.3 kPa, x1 = 0.6022): 0.945 ± 0.008 mPa·s
- viscosity (303.15 K, 101.3 kPa, x1 = 0.6954): 0.958 ± 0.008 mPa·s
- viscosity (303.15 K, 101.3 kPa, x1 = 0.7934): 0.975 ± 0.009 mPa·s
- viscosity (303.15 K, 101.3 kPa, x1 = 0.8919): 0.993 ± 0.009 mPa·s
- viscosity (308.15 K, 101.3 kPa, x1 = 0.1012): 0.847 ± 0.007 mPa·s
- viscosity (308.15 K, 101.3 kPa, x1 = 0.2027): 0.847 ± 0.008 mPa·s
- viscosity (308.15 K, 101.3 kPa, x1 = 0.3): 0.848 ± 0.008 mPa·s
- viscosity (308.15 K, 101.3 kPa, x1 = 0.3936): 0.853 ± 0.008 mPa·s
- viscosity (308.15 K, 101.3 kPa, x1 = 0.4982): 0.861 ± 0.008 mPa·s
- viscosity (308.15 K, 101.3 kPa, x1 = 0.6022): 0.871 ± 0.008 mPa·s
- viscosity (308.15 K, 101.3 kPa, x1 = 0.6954): 0.884 ± 0.008 mPa·s
- viscosity (308.15 K, 101.3 kPa, x1 = 0.7934): 0.901 ± 0.008 mPa·s
- viscosity (308.15 K, 101.3 kPa, x1 = 0.8919): 0.915 ± 0.009 mPa·s

SMILES: CC(C)CC(C)C + c1ccccc1
- viscosity (298 K, 101 kPa, x1 = 0.5): 0.3825 ± 0.01 mPa·s
- viscosity (318 K, 101 kPa, x1 = 0.5): 0.314 ± 0.0085 mPa·s

SMILES: COC(=O)c1ccccc1 + C1CCCCC1
- viscosity (303.15 K, 101 kPa, x1 = 0.5996): 0.9344 ± 0.096 mPa·s
- viscosity (308.15 K, 101 kPa, x1 = 0.5996): 0.8826 ± 0.091 mPa·s
- viscosity (313.15 K, 101 kPa, x1 = 0.5996): 0.8403 ± 0.087 mPa·s

SMILES: CCOC(=O)CCl + N#CCc1ccccc1
- viscosity (308.15 K, 101 kPa, x2 = 0.3793): 1.155 ± 0.013 mPa·s
